Results from patent US7371766B2, “Curcumin analogs with anti-tumor and anti-angiogenic properties” (Emory University, priority 1999, dated 2008).

What was measured:
K-562 = assay: cells; settings: Homo sapiens, K562, 48 h; for GI50: read-out: Median Growth Inhibitory Concentration (GI50); for CC50: read-out: Median Lethal Concentration (LC50)
MOLT-4 = assay: cells; settings: Homo sapiens, MOLT-4, 48 h; for GI50: read-out: Median Growth Inhibitory Concentration (GI50); for CC50: read-out: Median Lethal Concentration (LC50)
RPMI-8226 = assay: cells; settings: Homo sapiens, RPMI-8226, 48 h; for GI50: read-out: Median Growth Inhibitory Concentration (GI50)
HOP-62 = assay: cells; settings: Homo sapiens, HOP-62, 48 h; for GI50: read-out: Median Growth Inhibitory Concentration (GI50)
NCI-H460 = assay: cells; settings: Homo sapiens, NCI-H460, 48 h; for GI50: read-out: Median Growth Inhibitory Concentration (GI50); for CC50: read-out: Median Lethal Concentration (LC50)
HCT-15 = assay: cells; settings: Homo sapiens, HCT-15, 48 h; for GI50: read-out: Median Growth Inhibitory Concentration (GI50); for CC50: read-out: Median Lethal Concentration (LC50)
HT29 = assay: cells; settings: Homo sapiens, HT-29, 48 h; for GI50: read-out: Median Growth Inhibitory Concentration (GI50); for CC50: read-out: Median Lethal Concentration (LC50)
SF-268 = assay: cells; settings: Homo sapiens, SF-268, 48 h; for GI50: read-out: Median Growth Inhibitory Concentration (GI50); for CC50: read-out: Median Lethal Concentration (LC50)
SF-295 = assay: cells; settings: Homo sapiens, SF-295, 48 h; for GI50: read-out: Median Growth Inhibitory Concentration (GI50); for CC50: read-out: Median Lethal Concentration (LC50)
LOX IMVI = assay: cells; settings: Homo sapiens, 48 h; for GI50: read-out: Median Growth Inhibitory Concentration (GI50)
MALME-3M = assay: cells; settings: Homo sapiens, 48 h; for GI50: read-out: Median Growth Inhibitory Concentration (GI50); for CC50: read-out: Median Lethal Concentration (LC50)
SK-MEL-28 = assay: cells; settings: Homo sapiens, SK-MEL-28, 48 h; for GI50: read-out: Median Growth Inhibitory Concentration (GI50); for CC50: read-out: Median Lethal Concentration (LC50)
UACC-62 = assay: cells; settings: Homo sapiens, UACC-62, 48 h; for GI50: read-out: Median Growth Inhibitory Concentration (GI50); for CC50: read-out: Median Lethal Concentration (LC50)
IGROV1 = assay: cells; settings: Homo sapiens, IGROV-1, 48 h; for GI50: read-out: Median Growth Inhibitory Concentration (GI50); for CC50: read-out: Median Lethal Concentration (LC50)
OVCAR-3 = assay: cells; settings: Homo sapiens, OVCAR-3, 48 h; for GI50: read-out: Median Growth Inhibitory Concentration (GI50); for CC50: read-out: Median Lethal Concentration (LC50)
OVCAR-4 = assay: cells; settings: Homo sapiens, OVCAR-4, 48 h; for GI50: read-out: Median Growth Inhibitory Concentration (GI50); for CC50: read-out: Median Lethal Concentration (LC50)
OVCAR-5 = assay: cells; settings: Homo sapiens, OVCAR-5, 48 h; for GI50: read-out: Median Growth Inhibitory Concentration (GI50); for CC50: read-out: Median Lethal Concentration (LC50)
OVCAR-8 = assay: cells; settings: Homo sapiens, OVCAR-8, 48 h; for GI50: read-out: Median Growth Inhibitory Concentration (GI50); for CC50: read-out: Median Lethal Concentration (LC50)
A498 = assay: cells; settings: Homo sapiens, A498, 48 h; for GI50: read-out: Median Growth Inhibitory Concentration (GI50); for CC50: read-out: Median Lethal Concentration (LC50)
ACHN = assay: cells; settings: Homo sapiens, 48 h; for GI50: read-out: Median Growth Inhibitory Concentration (GI50); for CC50: read-out: Median Lethal Concentration (LC50)
CAKI-1 = assay: cells; settings: Homo sapiens, CAKI-1, 48 h; for GI50: read-out: Median Growth Inhibitory Concentration (GI50); for CC50: read-out: Median Lethal Concentration (LC50)
RXF 393 = assay: cells; settings: Homo sapiens, RXF 393, 48 h; for GI50: read-out: Median Growth Inhibitory Concentration (GI50); for CC50: read-out: Median Lethal Concentration (LC50)
SN12C = assay: cells; settings: Homo sapiens, 48 h; for GI50: read-out: Median Growth Inhibitory Concentration (GI50); for CC50: read-out: Median Lethal Concentration (LC50)
UO-31 = assay: cells; settings: Homo sapiens, UO-31, 48 h; for GI50: read-out: Median Growth Inhibitory Concentration (GI50); for CC50: read-out: Median Lethal Concentration (LC50)
PC-3 = assay: cells; settings: Homo sapiens, PC-3, 48 h; for GI50: read-out: Median Growth Inhibitory Concentration (GI50); for CC50: read-out: Median Lethal Concentration (LC50)
DU-145 = assay: cells; settings: Homo sapiens, DU-145, 48 h; for GI50: read-out: Median Growth Inhibitory Concentration (GI50); for CC50: read-out: Median Lethal Concentration (LC50)
NCI/ADR-RES = assay: cells; settings: Homo sapiens, 48 h; for GI50: read-out: Median Growth Inhibitory Concentration (GI50); for CC50: read-out: Median Lethal Concentration (LC50)
MDA-N = assay: cells; settings: Homo sapiens, 48 h; for GI50: read-out: Median Growth Inhibitory Concentration (GI50); for CC50: read-out: Median Lethal Concentration (LC50)
BT-549 = assay: cells; settings: Homo sapiens, BT-549, 48 h; for GI50: read-out: Median Growth Inhibitory Concentration (GI50); for CC50: read-out: Median Lethal Concentration (LC50)
[1] = tested on: Vascular Endothelial Growth Factor (VEGF) production by human melanoma cell line RPMI-7951; assay: VEGF ELISA, RPMI-7951; settings: for VEGF ELISA / VEGF: RPMI-7951; for VEGF ELISA: DMSO control 3713
Experimental: RPMI-795 1, MDA-MB-231 and MDA-MB-435 cell lines were cultured in MEM-alpha medium (GIBCO-BRL, Long Island, N.Y.) containing 10% fetal bovine serum (RPMI-7951, MDA-MB-231) or 5% FBS (MDA-MB-435) at 37° C. and under 5% CO2/95% air. […] The cells were cultured in 48 well plates in all of the experiments described.
A VEGF enzyme-linked immunosorbent assay (ELISA) was utilized to determine the effect of the compounds of the present invention on VEGF production of a variety of human cancer cell lines. For the VEGF assay, cells were plated at a concentration of 80,000 cells/well and cultured overnight. Compounds or vehicle (DMSO 0.1%) were then added and the plates were incubated for 72 hours. Supernatant was then collected from each well and frozen in a −80° C. freezer until needed. Cell viability was determined by Neutral Red Assay. VEGF ELISA Kit (R & D, Minneapolis, Minn.) was used to determine the amount of VEGF in the culture supernatants. The ELISA was carried out according to the manufacturer's procedure.

[2] = read-out: Median Lethal Concentration (LC50)
[3] = Homo sapiens, RPMI-7951, 72 h, read-out: VEGF

O=C(C=Cc1ccc(F)cc1F)C=Cc1ccc(F)cc1F [EF9, 1,5-Bis(2,4-difluorophenyl)penta-1,4-dien-3-one]
GI50 (K-562): 3.5 µM
CC50 (K-562): > 100 µM
GI50 (MOLT-4): 9.3 µM
CC50 (MOLT-4): > 100 µM
GI50 (RPMI-8226): 2.4 µM
CC50 (RPMI-8226; [2]): 95.6 µM
GI50 (HOP-62): 16.6 µM
CC50 (HOP-62; [2]): 60.7 µM
GI50 (NCI-H460): 12.7 µM
CC50 (NCI-H460): 60.9 µM
GI50 (HCT-15): 4.9 µM
CC50 (HCT-15): 64.7 µM
GI50 (HT29): 4.1 µM
CC50 (HT29): 41.9 µM
GI50 (SF-268): 13.7 µM
CC50 (SF-268): > 100 µM
GI50 (SF-295): 14.2 µM
CC50 (SF-295): 58.8 µM
GI50 (LOX IMVI): 3.4 µM
CC50 (LOX IMVI; [2]): 67.6 µM
GI50 (MALME-3M): 17.8 µM
CC50 (MALME-3M): 73.4 µM
GI50 (SK-MEL-28): 18.6 µM
CC50 (SK-MEL-28): 61.1 µM
GI50 (UACC-62): 13.9 µM
CC50 (UACC-62): 52.8 µM
GI50 (IGROV1): 3.8 µM
CC50 (IGROV1): 46.2 µM
GI50 (OVCAR-3): 14.1 µM
CC50 (OVCAR-3): 52.1 µM
GI50 (OVCAR-4): 15.2 µM
CC50 (OVCAR-4): 61.6 µM
GI50 (OVCAR-5): 20 µM
CC50 (OVCAR-5): 63.3 µM
GI50 (OVCAR-8): 3.4 µM
CC50 (OVCAR-8): 85.3 µM
GI50 (A498): 2.4 µM
CC50 (A498): 23 µM
GI50 (ACHN): 16.5 µM
CC50 (ACHN): 54.8 µM
GI50 (CAKI-1): 15 µM
CC50 (CAKI-1): 93.4 µM
GI50 (RXF 393): 2.3 µM
CC50 (RXF 393): 17.9 µM
GI50 (SN12C): 17.1 µM
CC50 (SN12C): 62.3 µM
GI50 (UO-31): 9.6 µM
CC50 (UO-31): 49.5 µM
GI50 (PC-3): 4.8 µM
CC50 (PC-3): 41 µM
GI50 (DU-145): 2.1 µM
CC50 (DU-145): 29 µM
GI50 (NCI/ADR-RES): 30.7 µM
CC50 (NCI/ADR-RES): > 100 µM
GI50 (MDA-N): 2.9 µM
CC50 (MDA-N): 33.2 µM
GI50 (BT-549): 6.5 µM
CC50 (BT-549): 47.3 µM
activity at 5 µM [1, 3]: 46%
activity at 20 µM [1, 3]: 14%
VEGF ELISA ([1]; 5 μM): 1868 pg/ml/well
VEGF ([1]; 5 μM, DMSO control 4197 (EF-25: 1045)): 1925 pg/mL
VEGF ELISA ([1]; 20 μM): 705 pg/ml/well
VEGF ([1]; 20 μM, DMSO control 4197): 595 pg/mL

CC(=O)O.O=C1C(=Cc2ccccc2F)CNCC1=Cc1ccccc1F [EF24, 3,5-Bis-(2-fluorobenzylidene)-piperidin-4-one-acetate]
GI50 (K-562): 0.3 µM
CC50 (K-562): 75.4 µM
GI50 (MOLT-4): 0.5 µM
CC50 (MOLT-4): 66.2 µM
GI50 (RPMI-8226): 0.2 µM
GI50 (HOP-62): 0.7 µM
GI50 (NCI-H460): 81 µM
CC50 (NCI-H460): 50.1 µM
GI50 (HCT-15): 0.2 µM
CC50 (HCT-15): 13.6 µM
GI50 (HT29): 0.3 µM
CC50 (HT29): 57.3 µM
GI50 (SF-268): 0.6 µM
CC50 (SF-268): 55.6 µM
GI50 (SF-295): 85 µM
CC50 (SF-295): 20.6 µM
GI50 (LOX IMVI): 0.2 µM
GI50 (MALME-3M): 2.3 µM
CC50 (MALME-3M): 25.2 µM
GI50 (SK-MEL-28): 2.1 µM
CC50 (SK-MEL-28): 33.1 µM
GI50 (UACC-62): 1.6 µM
CC50 (UACC-62): 4.5 µM
GI50 (IGROV1): 0.8 µM
CC50 (IGROV1): 7.1 µM
GI50 (OVCAR-3): 1.1 µM
CC50 (OVCAR-3): 16.2 µM
GI50 (OVCAR-4): 0.7 µM
CC50 (OVCAR-4): 17.2 µM
GI50 (OVCAR-5): 1.3 µM
CC50 (OVCAR-5): 9.2 µM
GI50 (OVCAR-8): 0.4 µM
CC50 (OVCAR-8): 31.3 µM
GI50 (A498): 0.9 µM
CC50 (A498): 3.4 µM
GI50 (ACHN): 1.1 µM
CC50 (ACHN): 5.6 µM
GI50 (CAKI-1): 0.8 µM
CC50 (CAKI-1): 27.2 µM
GI50 (RXF 393): 0.6 µM
CC50 (RXF 393): 3.6 µM
GI50 (SN12C): 1 µM
CC50 (SN12C): 5.4 µM
GI50 (UO-31): 0.6 µM
CC50 (UO-31): 4.5 µM
GI50 (PC-3): 0.3 µM
CC50 (PC-3): 7.2 µM
GI50 (DU-145): 0.7 µM
CC50 (DU-145): 5.4 µM
GI50 (NCI/ADR-RES): 0.9 µM
CC50 (NCI/ADR-RES): 60.6 µM
GI50 (MDA-N): 0.5 µM
CC50 (MDA-N): 5.6 µM
GI50 (BT-549): 0.7 µM
CC50 (BT-549): 4.7 µM
